One data set in a line: physchem. The conditions noted are these: water.
The next data set deals with primary genital herpes. The conditions noted are these: guinea pigs, single dose; cited from earlier work.
Data set [1] has as its system isolated human mononuclear cells. As to conditions: cited from earlier work.
Data set [2] relates to cutaneous metastatic melanoma. The conditions noted are these: topical, under occlusion; cited from earlier work.
The test system of data set [3] is mouse spleen cell cultures. As to conditions: cited from earlier work.
The next data set relates to rhinovirus 1A. The conditions noted are these: in vitro, cells infected with rhinovirus 1A; cited from earlier work.
Data set [4] deals with spleen, bone marrow, liver, peritoneal exudates and alveolar macrophages. As to conditions: in vitro; cited from earlier work.
The subject of data set [5] is respiratory syncytial virus. As to conditions: in vitro, cells infected with respiratory syncytial virus; cited from earlier work.
The conditions of data set [6]: cited from earlier work.
For data set [7] the following is noted: topical; cited from earlier work.
The next data set deals with varicella zoster. The conditions noted are these: in vitro, cells infected with varicella zoster; cited from earlier work.
A further data set can be described thus: aqueous solubility. The conditions noted are these: pH 7.4, aqueous buffer.
Data set [8] relates to a number of different tumor cell types. As to conditions: mice implanted with tumor cells; cited from earlier work.
The conditions of data set [9]: cited from earlier work. The source holds these as a separate data set.
The test system of another data set is Rift Valley Fever virus. The conditions noted are these: monkeys; cited from earlier work.
The subject of a further data set is Banzi virus. The conditions noted are these: monkeys; cited from earlier work.
For data set [10] the following is noted: cited from earlier work. The source holds these as a separate data set.

A word on the solubility: it is the dissolved amount per volume that the medium holds.

In brackets after ≈: the same amount, converted by molar mass.

Molecule `CC(C)(C)CC(=O)OCC(=O)[C@@]12OC(C)(C)O[C@@H]1C[C@H]1[C@@H]3CCC4=CC(=O)C=C[C@]4(C)[C@@]3(F)[C@@H](O)C[C@@]12C` [Triamcinolone hexacetonide] yielded a solubility in “physchem” of 3.75 µM (≈ 2 µg/mL).
Regarding `CC(C)Cn1cnc2c(N)nc3ccccc3c21` [imiquimod, 1-(2-methylpropyl)-1H-imidazo[4,5-c]quinolin-4-amine], the “treatment of primary genital herpes infections” value in the data set with primary genital herpes is “effectively treats”. Also, the “concentration of maximal interferon-alpha production” value in [1] was 3 µM. In addition, the “treatment of cutaneous metastatic melanoma” value in [2] was “successfully treated”. In addition, the “concentration of maximum activity, induced proliferation” value in data set [3] was 1 µg/mL. The plaque reduction (with rhinovirus 1A; in data set [5]; in the data set with varicella zoster) was 50% in each case. For the same molecule, in data set [4], the “time of cytokine induction after exposure” value was 1 to 2 h. For the same molecule, the “time of peak cytokine induction” value in data set [4] was 8 h. In data set [6] (dermal administration), the systemic exposure entry was “minimal”. Moreover, the absorption result in [6] (oral administration) is “rapidly absorbed”. Moreover, in [7], the “effect on contact allergy to dinitrochlorobenzene” value was “enhanced contact allergy”. The solubility in “aqueous solubility” is 4 µM (≈ 0.961 µg/mL). Further, the anti-tumor effect entry in data set [8] is listed as “effective anti-tumor agent”. In data set [9] (free base form), the “solubility in water and common organic solvents” value is listed as “almost insoluble”. The “solubility at physiologic pH” value in data set [9] (physiologic pH) is 1-2 μg/ml. For the same molecule, the “efficacy against Rift Valley Fever virus” value in the data set with Rift Valley Fever virus is on record as “effective”. The “efficacy against Banzi virus” value in the data set on Banzi virus is “effective”. Besides, in [10] (oral administration), the systemic toxicity entry is reported as “significant systemic toxicity”. Moreover, the skin irritation result in data set [10] (topical administration of creams) is recorded as “significant skin irritation”.

Source of the values: patent US8211906B1, “Method of inhibiting growth of neoplastic cells and inhibiting infection by administering an immune enhancer drug” (priority 2003, dated 2012).
